# Assay results published in patent US12662530B2, “Anti-ADM-antibodies binding to the free N-terminus for accelerated transition of ADM-Gly to bio-ADM in patients with ADM-Gly/ bio-ADM ratio above a threshold and combination with vitamin C” (SphingoTec GmbH, priority 2020, dated 2026).
# Read-outs that look alike come from different tables or passages of the source.
# Experiments:
# [1] = Single escalating i.v. doses in healthy male subjects (phase I): ADM values and safety; assay type: in vivo, human
# Experimental: The study was described in Geven et al. (Geven et al. 2017. Intensive Care Med Exp 5 (Suppl 2): 0427). Briefly, the study was conducted in healthy male subjects as a randomized, double-blind, placebo-controlled, study with single escalating doses of NT-H antibody (HAM8101) administered as intravenous (i.v.) infusion in 3 sequential groups of 8 healthy male subjects each (1st group 0.5 mg/kg, 2nd group 2 mg/kg, 3rd group 8 mg/kg) of healthy male subjects (n=6 active, n=2 placebo for each group). The main inclusion criteria were written informed consent, age 18-35 years, agreement to use a reliable way of contraception and a BMI between 18 and 30 kg/m^2. Subjects received a single i.v. dose of NT-H antibody (HAM8101) (0.5 mg/kg; 2 mg/kg; 8 mg/kg) or placebo by slow infusion over a 1-hour period in a research unit.
# human native PAM = experiment: bio-ADM maturation activity (AMA) in samples of healthy subjects before and after administration; assay type: in vivo
# Experimental: Human serum was used as source of human native PAM. Each sample (20 μl) was diluted two-fold in 100 mM Tris-HCl in duplicate. The amidation reaction was initiated by addition of 160 μl of NT-ADM antibodies (HAM8101, AK1373, AK1388, AK1398 or AK1434) or MR-ADM antibodies (ADM43, ADM38, ADM41, ADM2901, ADM2902 and ADM2903) containing PAM-reaction buffer (100 mM Tris-HCl, pH 7.5, 6.25 μM CuSO4, 2.5 mM Ascorbate, 125 μg/mL Catalase, 62.5 μM Amastatin, 250 μM Leupeptin, and 36 ng/mL synthetic 1-53 Adrenomedullin-Gly as substrate). The final antibody concentrations were 100 μg/mL, respectively. Afterwards, 100 μl of each individual reaction of duplicated samples were combined and transferred into 20 μl of 200 mM EDTA to terminate the amidation reaction and thus to generate a t=0 minutes reaction time-point followed by incubation at 37° C. for 40 minutes. Afterwards the non-terminated reactions were stopped with 10 μl of 200 mM EDTA. To determine the PAM activity in NT-ADM antibody containing samples, bio-ADM was quantified in each reaction using the Sphingotest® bio-ADM immunoassay (Weber et al. 2017, supra). The MR-ADM antibody containing reaction was transferred to an alternative bio-ADM assay (description below). A control reaction without antibodies was measured in both bio-ADM assays. For each sample the difference between t=40 min and t=0 min bio-ADM concentration was calculated. PAM activity is described as ng bio-ADM formed per hour and L of sample and was normalized to the reaction without antibody addition, which was set as 100%.
# The formation of bio-ADM from ADM-Gly by recombinant human PAM enzyme and the invivo influence of the N-terminal anti-Adrenomedullin antibody HAM8101 using samples from healthy subjects that received HAM8101 was investigated by measuring the bio-ADM maturation activity (AMA).
# Samples from n=3 subjects from each administration group before and 1 hour after administration of HAM8101 were used. Activity was determined as described for Serum samples in example 5b). The assay was calibrated using recombinant human PAM of known activity (InVivo Biotech Services GmbH, Hennigsdorf). Calibrators, controls and samples were treated in the same manner. The produced bio-ADM in the reaction-samples was quantified using the Sphingotest® bio-ADM assay (Weber et al., 2017). For each sample the difference of the t=40 min and t=0 min signal (RLUs, relative light units) was calculated and the signal (RLU(t40−t0 min)) of the calibrator was used to determine the AMA in tested serum samples. AMA is expressed as ng bio-ADM formed per hour and Liter of sample (ng/[h*L]).
# [2] = tested on: ADM-Gly to bio-ADM conversion; assay type: in vivo; conditions: for ADM-Gly/bioADM Ratio: Table 4, n 9
# Description: ADM-Gly was quantified as based on Weber et al. (Weber et al. 2017. JALM 2(2): 222-233) for bioactive ADM with the following modifications: the tracer-antibody used for ADM-Gly detection, labelled with MACN-acridinium-NHS, was directed to the C-terminal glycine of ADM-Gly. The assay was calibrated with synthetic ADM-Gly. […] All determined ADM-Gly concentrations were corrected for cross-reactivity as follows: For each ADM-Gly quantification additional quantification of bio-ADM in corresponding samples was performed using the Sphingotest® bio-ADM immunoassay. The corresponding bio-ADM values were used to determine the signal (RLU) generated with the antibody directed to C-terminal glycine of ADM on a bio-ADM calibration curve. The determined signal (RLU) was used to calculate the false-positive ADM-Gly concentration (pg/mL) using the ADM-Gly calibration curve. This concentration was subtracted from the initially determined ADM-Gly concentration. […]
# (§1) Critically ill subjects were from the AdrenOSS-I cohort described in example 7. Healthy and healthy HAM8101 treated subjects were from the study cohort described in example 6 (Geven et al. 2017. Intensive Care Med Exp 5 (Suppl 2): 0427). Bio-ADM was determined as described by Weber et al., 2017. ADM-Gly was determined as described in example 4.
# MR-proADM/bio-ADM ratio = MR-proADM/bio-ADM ratio in samples of healthy subjects after administration; assay type: in vivo, human; conditions: Table 5, n 18
# Experimental: as §1
# The same patients as described in example 8 were also analysed for their MR-proADM/ADM-NH2 ratio.
# [3] = Geven et al. 2017; cited from earlier work
# [4] = tested on: CLP-induced sepsis in mice; conditions: pre-treatment, cited from earlier work
# [5] = group 1 (0.5 mg/kg), after 24 hours
# [6] = group 2 (2 mg/kg), after 24 hours
# [7] = group 3 (8 mg/kg), after 24 hours
substance,measurement,setting,value
"HAM8101: humanized N-terminal anti-ADM antibody, heavy chain SEQ ID No. 35, light chain SEQ ID No. 36",time within which ADM-values rapidly increased after administration,"[1]; healthy human individuals, 0.5, 2, 8 mg/kg i.v., FIG. 10",≤ 1.5 h
same,"safety: heart rate, mean arterial pressure, peripheral oxygen saturation, temperature","[1]; healthy male subjects, single i.v. dose 0.5, 2, 8 mg/kg","did not influence heart rate, mean arterial pressure, peripheral oxygen saturation or temperature"
same,routine haematological and biochemical safety laboratory measurements,"[1]; healthy male subjects, single i.v. dose 0.5, 2, 8 mg/kg versus placebo",no significant differences between groups
same,AMA increased by,"human native PAM; group 1 (0.5 mg/kg), after 1 hour",approximately 60%
same,AMA increased by,"human native PAM; group 1 (0.5 mg/kg), after 4 hours",~40%
same,AMA increased by,human native PAM; [5],~52%
same,AMA increased by,"human native PAM; group 2 (2 mg/kg), after 1 hour",approximately 27%
same,AMA increased by,"human native PAM; group 2 (2 mg/kg), after 4 hours",~25%
same,AMA increased by,human native PAM; [6],~40%
same,AMA increased by,"human native PAM; group 3 (8 mg/kg), after 1 hour",approximately 65%
same,AMA increased by,"human native PAM; group 3 (8 mg/kg), after 4 hours",~48%
same,AMA increased by,human native PAM; [7],approximately 60%
same,ADM-Gly/bioADM Ratio,[2]; Healthy HAM8101 treated (1 h),0.61
same,ADM-Gly/bioADM Ratio,[2]; Healthy HAM8101 treated (4 h),0.33
same,ratio of ADM-Gly/bio-ADM,"[2]; group 1 (0.5 mg/kg), after 1 h, FIG. 12",approximately 0.75
same,ratio of ADM-Gly/bio-ADM,[2]; [5],No further change
same,ratio of ADM-Gly/bio-ADM,"[2]; group 1 (0.5 mg/kg), four hours after administration",approximately 0.38
same,ratio of ADM-Gly/bio-ADM,"[2]; group 2 (2 mg/kg), after 1 h",~0.63
same,ratio of ADM-Gly/bio-ADM,[2]; [6],No further change
same,ratio of ADM-Gly/bio-ADM,"[2]; group 2 (2 mg/kg), four hours after administration",~0.25
same,ratio of ADM-Gly/bio-ADM,"[2]; group 3 (8 mg/kg), after 1 h",~0.43
same,ratio of ADM-Gly/bio-ADM,[2]; [7],approximately 0.5
same,ratio of ADM-Gly/bio-ADM,"[2]; group 3 (8 mg/kg), four hours after administration",approximately 0.38
same,MR-proADM/bio-ADM ratio,MR-proADM/bio-ADM ratio; Healthy HAM8101 treated (1 h),44.6
same,MR-proADM/bio-ADM ratio,MR-proADM/bio-ADM ratio; Healthy HAM8101 treated (4 h),42.4
same,"safety and tolerability, phase I study",[3],no serious adverse events were observed
same,7-day survival,"[4]; repeated dose administration, control 0%",40%
same,7-day survival,"[4]; single dose administration, control 10%",50%
